Here are results for 2 compounds from patent US20230372273A1, “IONIC LIQUID COMPOSITIONS FOR SKIN DISEASES AND CONDITIONS” (CAGE BIO, INC., priority 2020, published 2023).

In general, IC50 refers to the concentration needed to halve the response being measured. As usually defined, the Log P is a log measure of how a compound divides between an organic and an aqueous phase.

The test system of series [1] is Propionibacterium acnes clinical isolates.
The target of a further series is T1, Recombinant human KLK5 (Homo sapiens, UniProt Q9Y337).
T1 construct: purchased Speed Biosystems LLC YS1485
T1 sequence (Q9Y337 23-293): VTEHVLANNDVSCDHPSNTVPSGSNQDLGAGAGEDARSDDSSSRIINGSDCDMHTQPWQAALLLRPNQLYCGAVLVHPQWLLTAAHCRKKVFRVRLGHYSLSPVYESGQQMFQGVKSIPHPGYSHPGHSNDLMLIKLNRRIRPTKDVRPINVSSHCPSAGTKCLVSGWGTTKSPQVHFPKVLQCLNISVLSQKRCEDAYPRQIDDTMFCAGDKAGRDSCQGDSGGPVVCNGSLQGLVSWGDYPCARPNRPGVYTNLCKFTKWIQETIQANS
The series can be described thus: hKLK5 enzymatic assay. The format is biochemical. The following applies: substrate S-2288, OD 405 nm, 37° C.; read-out: IC50 against hKLK5. The protocol: hKLK5 Enzymatic Assay. Test compound CAGE1:2 (87.07% w/v) was diluted to 0.99 mM and control compound Aprotinin was prepared at 6 μM in di-water. A 2-fold serial dilution was then performed in di-water to generate 10 concentrations for CAGE1:2 (87.07% w/v) and 8 concentrations for Aprotinin which were 2× of the final concentrations in the reaction. Recombinant human KLK5 was purchased from Speed Biosystems LLC (Catalog No. YS1485, Lot No. 0330517, 17.2 μM). The substrate S-2288 was purchased from Diapharma Group, Inc (Catalog No. S820852, Lot No. N0889942).
The assay was carried out in 384-well clear bottom plate coated with 0.1% Tween 20 at 4° C. overnight and washed twice with di-water before usage. 50 μL 2× compound in water was mixed with 25 μL 4× hKLK5 enzyme (120 nM) prepared in 2× reaction buffer (100 mM Tris, pH 8.0, 200 mM NaCl, 0.2% PEG, 0.01% Tween 20, 2 mM EDTA). The enzymatic reaction was initiated by the addition of 25 μL 4× substrate S-2288 (2 mM) in 2× reaction buffer to all wells. OD 405 nm was measured every 30 seconds by SpetraMax 384 Plus at 37° C. for 1 hour.

Series [2] is described as follows: Human cadaver skin permeation (Franz cells). The format is in vitro ADME. The protocol:
Human cadaver skin permeation evaluation. Dermatomed full thickness human cadaver skin samples, 250-350 μm, were mounted onto static Franz cells. […] Phosphate buffered saline (PBS), pH 7.4 was used as the receptor medium. CGB400 gel was applied to the stratum corneum side of the skin samples at a dose of 15 μL/cm^2 ( 15 mg/cm^2). The cells were kept in a chamber at 37 C for a period of 24 h. […] in the receptor chamber ensured that the receptor media was well mixed during this time. The receptor media was sampled at 4, 7, and 24 hours to quantify the amount of choline and geranic acid permeation. After 24 hours, the skin surface was washed before removing the stratum corneum (SC) by tape stripping. […] Following SC removal, the epidermis was separated from the dermis using a surgical sterile scalpel and the dermis was cut into pieces. Each layer was collected separately in glass vials containing 2 mL of 50:50 water:methanol mixture and was left to shake overnight to extract the choline and geranic acid. The amount of choline and geranic acid was measured using LC-MS/MS in the wash, epidermis, dermis, and the receptor medium.

For series [3] the following is noted: cited from earlier work.

With Choline geranate [CAGE1:2], in series [1], the “effective concentration for antibacterial activity” value was under 0.45 mM. The “Minimum Inhibitory Concentration (MIC)” value in series [1] (P. acnes isolates, 48 hours) was 0.025-0.2 % of neat CAGE1:2. Moreover, the IC50 at Recombinant human KLK5 was about 30 mM. Also, in series [2], the “applied dose penetrated into the dermis” value is “About 9.5%”, the “estimated epidermal CAGE concentration” value is about 76 mM and the “molar ratio of choline to geranic acid in the epidermis” value turned out to be 1.18.
Take `CC(C)=CCC/C(C)=C/C(=O)O` [geranic acid, 3,7-dimethyl-2,6-octadienoic acid]: the “Log P” value in series [3] was 2.8.
